Test results as given in patent publication US8367873B2, “Phenyl-substituted bicyclooctane-1,3-dione derivatives” (Bayer Cropscience AG, priority 2008, dated 2013).

Columns and labels:
Format in all cases: in vivo
Setaria viridis [1] = assay: Herbicidal post-emergence action; conditions: post-emergence method, 80 g/ha
Method in brief: (§1)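 One-leaf-stage greenhouse plants sprayed with WP at graded amounts (600 l/ha, 0.2% wetting agent); ~3 wk later, visual % effect rated vs untreated controls, 100% = dead, 0% = like control.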

Alopecurus myosuroides [2] = assay: Herbicidal post-emergence action; conditions: post-emergence method, 80 g/ha
Method in brief: as §1

Lolium multiflorum [3] = assay: Herbicidal post-emergence action; conditions: post-emergence method, 80 g/ha
Method in brief: as §1

Echinocloa crus-galli [4] = assay: Herbicidal post-emergence action; conditions: post-emergence method, 80 g/ha
Method in brief: as §1

cereals = assay: Container trials with cereals in the greenhouse, use of safeners (Mefenpyr 1 day prior to herbicide application)
Procedure: Seeds of monocotylidonous and dicotylidonous weed and crop plants are placed in sandy loam in wood fibre pots, covered with soil and cultivated in a greenhouse under good growth conditions. Two to three weeks after sowing, the test plants are treated at the one-leaf stage. The test compounds, formulated as wettable powders (WP), are then with a water application rate of 600 l/ha (converted), with 0.2% of wetting agent added, sprayed onto the green parts of the plants in different amounts. After the test plants have been kept in the greenhouse under optimum growth conditions for about three weeks, the effect of the preparations is assessed visually in comparison to untreated controls (herbicidal effect in percent: 100% effect=the plants have died, 0% effect=like control plants).
If it is to be additionally tested as to whether safeners can improve the plant compatibility of test substances in the case of crop plants, the following options are used for applying the safeners: • Seeds of the crop plants are, before sowing, dressed with safener substance (the amount of safener stated in percent, based on the weight of the seed) • Before the application of the test substances, the crop plants are sprayed with the safener at a certain application rate per hectare (usually one day before the application of the test substances) • The safener is applied together with the test substance as a tank mix (the amount of safener stated in g/ha or as a ratio, based on the herbicide).
Container Trials with Cereals in the Greenhouse

[5] = test system: monocotylidonous and dicotylidonous weed and crop plants; assay: Herbicidal pre-emergence action (other test plants); conditions: pre-emergence method, 80 g/ha, greenhouse, visual assessment vs untreated controls
Method in brief: (§2)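 Seeds sown in sandy loam and covered with soil; WP-formulated compounds applied as aqueous suspension (600 l/ha water, 0.2% wetting agent) to the soil surface at various rates. Greenhouse-grown; emergence damage scored visually after three weeks versus untreated controls (0% = like control, 100% = plants dead).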

[6] = test system: monocotylidonous and dicotylidonous weed and crop plants; assay: Herbicidal post-emergence action (other test plants); conditions: post-emergence method, 80 g/ha
Method in brief: as §1

Setaria viridis [7] = assay: Herbicidal pre-emergence action; conditions: pre-emergence method, 80 g/ha, greenhouse, visual assessment vs untreated controls
Method in brief: as §2

Alopecurus myosuroides [8] = assay: Herbicidal pre-emergence action; conditions: pre-emergence method, 80 g/ha, greenhouse, visual assessment vs untreated controls
Method in brief: as §2

Lolium multiflorum [9] = assay: Herbicidal pre-emergence action; conditions: pre-emergence method, 80 g/ha, greenhouse, visual assessment vs untreated controls
Method in brief: as §2

Echinocloa crus-galli [10] = assay: Herbicidal pre-emergence action; conditions: pre-emergence method, 80 g/ha, greenhouse, visual assessment vs untreated controls
Method in brief: as §2

[11] = 28 days after application, 50 g of a.i./ha
[12] = 28 days after application, 100 g of a.i./ha
[13] = 28 days after application, 12.5 g of a.i./ha
[14] = 28 days after application, 25 g of a.i./ha

CCc1cc(C)cc(CC)c1C1=C(O)[C@H]2CC3(C[C@H]2C1=O)OCC(C)CO3 (relative stereo) [I-a-25]
herbicidal effect against SETVI (Setaria viridis) (Setaria viridis [1]): 100% | herbicidal effect against ALOMY (Alopecurus myosuroides) (Alopecurus myosuroides [2]): 100% | herbicidal effect against LOLMU (Lolium multiflorum) (Lolium multiflorum [3]): 100% | herbicidal effect against ECHCG (Echinochloa crus-galli) (Echinocloa crus-galli [4]): 100% | Summer barley observed (%) (cereals; [11]): 60% | Summer barley observed (%) (cereals; [12]): 85% | Summer wheat observed (%) (cereals; [13]): 10% | Summer wheat observed (%) (cereals; [14]): 30% | Summer wheat observed (%) (cereals; [11]): 70% | Summer wheat observed (%) (cereals; [12]): 85% | herbicidal effect AVEFA [5]: 70% | herbicidal effect against AVEFA (Avena fatua) [6]: 100% | herbicidal effect SETVI (Setaria viridis [7]): 90% | herbicidal effect ALOMY (Alopecurus myosuroides [8]): 100% | herbicidal effect LOLMU (Lolium multiflorum [9]): 100% | herbicidal effect ECHCG (Echinocloa crus-galli [10]): 90%

CCc1cc(C)cc(CC)c1C1=C(OC(=O)OC(C)C)[C@H]2C[C@]3(COC(C)(C)O3)C[C@H]2C1=O (relative stereo) [I-c-3]
herbicidal effect against SETVI (Setaria viridis) (Setaria viridis [1]): 80% | herbicidal effect against ALOMY (Alopecurus myosuroides) (Alopecurus myosuroides [2]): 90% | herbicidal effect against LOLMU (Lolium multiflorum) (Lolium multiflorum [3]): 100% | herbicidal effect against ECHCG (Echinochloa crus-galli) (Echinocloa crus-galli [4]): 90% | Summer barley observed (%) (cereals; [14]): 15% | Summer barley observed (%) (cereals; [11]): 30% | Summer barley observed (%) (cereals; [12]): 95% | Summer wheat observed (%) (cereals; [13]): 10% | Summer wheat observed (%) (cereals; [14]): 20% | Summer wheat observed (%) (cereals; [11]): 60% | Summer wheat observed (%) (cereals; [12]): 99% | herbicidal effect AVEFA [5]: 80% | herbicidal effect against AVEFA (Avena fatua) [6]: 80% | herbicidal effect SETVI (Setaria viridis [7]): 70% | herbicidal effect ALOMY (Alopecurus myosuroides [8]): 100% | herbicidal effect LOLMU (Lolium multiflorum [9]): 100% | herbicidal effect ECHCG (Echinocloa crus-galli [10]): 40%

CCOC(=O)OC1=C(c2c(CC)cc(C)cc2CC)C(=O)[C@@H]2CC3(C[C@H]12)OCCO3 (relative stereo) [I-c-7]
herbicidal effect against SETVI (Setaria viridis) (Setaria viridis [1]): 80% | herbicidal effect against ALOMY (Alopecurus myosuroides) (Alopecurus myosuroides [2]): 90% | herbicidal effect against LOLMU (Lolium multiflorum) (Lolium multiflorum [3]): 100% | herbicidal effect against ECHCG (Echinochloa crus-galli) (Echinocloa crus-galli [4]): 100% | Summer wheat observed (%) (cereals; 10 days after application, 12.5 g of a.i./ha): 40% | Summer wheat observed (%) (cereals; 10 days after application, 25 g of a.i./ha): 50% | Summer wheat observed (%) (cereals; 10 days after application, 50 g of a.i./ha): 60% | Summer wheat observed (%) (cereals; [13]): 10% | Summer wheat observed (%) (cereals; [14]): 30% | Summer wheat observed (%) (cereals; [11]): 30% | Summer wheat observed (%) (cereals; [12]): 30% | herbicidal effect AVEFA [5]: 70% | herbicidal effect against AVEFA (Avena fatua) [6]: 70% | herbicidal effect SETVI (Setaria viridis [7]): 70% | herbicidal effect ALOMY (Alopecurus myosuroides [8]): 100% | herbicidal effect LOLMU (Lolium multiflorum [9]): 90% | herbicidal effect ECHCG (Echinocloa crus-galli [10]): 100%

CCOC(=O)OC1=C(c2c(CC)cc(C)cc2CC)C(=O)[C@@H]2CC3(C[C@H]12)OCCCCO3 (relative stereo) [I-c-9]
herbicidal effect against SETVI (Setaria viridis) (Setaria viridis [1]): 90% | herbicidal effect against ALOMY (Alopecurus myosuroides) (Alopecurus myosuroides [2]): 90% | herbicidal effect against LOLMU (Lolium multiflorum) (Lolium multiflorum [3]): 100% | herbicidal effect against ECHCG (Echinochloa crus-galli) (Echinocloa crus-galli [4]): 100% | Summer wheat observed (%) (cereals; [14]): 30% | Summer wheat observed (%) (cereals; [11]): 40% | Summer wheat observed (%) (cereals; [12]): 50% | herbicidal effect AVEFA [5]: 70% | herbicidal effect against AVEFA (Avena fatua) [6]: 80% | herbicidal effect SETVI (Setaria viridis [7]): 70% | herbicidal effect ALOMY (Alopecurus myosuroides [8]): 100% | herbicidal effect LOLMU (Lolium multiflorum [9]): 100% | herbicidal effect ECHCG (Echinocloa crus-galli [10]): 100%

CCOC(=O)OC1=C(c2c(CC)cc(C)cc2CC)C(=O)[C@@H]2CC3(C[C@H]12)OCCCO3 (relative stereo) [I-c-14]
herbicidal effect against SETVI (Setaria viridis) (Setaria viridis [1]): 100% | herbicidal effect against ALOMY (Alopecurus myosuroides) (Alopecurus myosuroides [2]): 90% | herbicidal effect against LOLMU (Lolium multiflorum) (Lolium multiflorum [3]): 100% | herbicidal effect against ECHCG (Echinochloa crus-galli) (Echinocloa crus-galli [4]): 100% | Summer barley observed (%) (cereals; [11]): 10% | Summer barley observed (%) (cereals; [12]): 20% | Summer wheat observed (%) (cereals; [13]): 40% | Summer wheat observed (%) (cereals; [14]): 50% | Summer wheat observed (%) (cereals; [11]): 60% | Summer wheat observed (%) (cereals; [12]): 70% | herbicidal effect AVEFA [5]: 70% | herbicidal effect against AVEFA (Avena fatua) [6]: 70% | herbicidal effect SETVI (Setaria viridis [7]): 70% | herbicidal effect ALOMY (Alopecurus myosuroides [8]): 90% | herbicidal effect LOLMU (Lolium multiflorum [9]): 100% | herbicidal effect ECHCG (Echinocloa crus-galli [10]): 90%
